The values that follow come from patent US20240067632A1, “WEE1 Degrading Compounds and Uses Thereof” (Bristol-Myers Squibb Company, priority 2022, published 2024).

Like-named read-outs stand apart in the source and are kept apart here.

In experiment [1] the target is T1, WEE1 (Homo sapiens, UniProt P30291+Q96SW2).
T1 construct: C-terminal ePL-tagged (DiscoverX, Fremont, CA) full-length WEE1 expression construct; expressed in transfected cells; host or cells: LentiX-HEK293T (Invitrogen), lentiviral transduction; co-expressing GSPT1-GN (G576N, lacking the first 158 amino acids)
Briefly: WEE1-ePL degradation assay (LentiX-WEE1-ePL-GSPT1-ND cells, InCELL Hunter luminescence, 4 h). It is filed as cell-based. As to conditions: 293T-LentiX WEE1-ePL cells; for DC50: read-out: 293T-LentiX WEE1-ePL Degradation 4 hr (EC50). The method, boiled down:
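Degradation EC50 was fitted by a four-parameter logistic model, with the upper limit taken from DMSO wells. Luminescence was read with InCELL Hunter reagent after 30 min at room temperature, following a 4 h, 37° C exposure of 2500 cells/well. Cells were LentiX-HEK293T carrying ePL-tagged full-length WEE1, dosed in 10 points (3-fold) from 1 or 10 uM.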

In experiment [2] the test system is MKN45 cells. Kind of experiment: MKN45 cell proliferation assay (Cell-Titer-Glo, 120 h). Conditions: for EC50: Homo sapiens, MKN-45, 120 h, Cell-Titer-Glo, read-out: MKN45 Cell Prolif. 120 hr (EC50); for MKN45 Cell Prolif. 120 hr (Ymin-Obs): minimal percent of DMSO control observed in the concentrations tested. It is filed as cell-based. The method, boiled down:
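Cells seeded at 400/well onto pre-printed 10-point half-log dilutions (top 1 or 10 uM, 0.1% DMSO final), in triplicate, and grown 120 h at 37 C. Viability by Cell-Titer-Glo luminescence, blank-subtracted and normalised to DMSO; EC50 from four-parameter logistic fit, with observed minimal % of control recorded as Ymin-obs.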

The mark [3] stands for this setting: lower limit of the fit (0 = luciferase inhibitor, Ymax = DMSO control).
Where [4] appears, read: lower limit of the fit (Ymin=0 luciferase inhibitor, Ymax DMSO control).

Regarding `O=C1CCC(N2Cc3cc(O[C@H]4CCN(Cc5ccc6nc(C(F)(F)F)ccc6c5)C4)ccc3C2=O)C(=O)N1` (stereo partly drawn) [3-(1-oxo-5-{[(3S)-1-{[2-(trifluoromethyl)quinolin-6-yl]methyl}pyrrolidin-3-yl]oxy}-2,3-dihydro-1H-isoindol-2-yl)piperidine-2,6-dione], in experiment [1] (setting [3]), the “293T-LentiX WEE1-ePL Degradation 4 hr (Ymin)” value is recorded as 24.72. Besides, the DC50 in experiment [1] stood at 5.42 nM. For the same molecule, the EC50 (commonly the concentration that produces a half-maximal response) in experiment [2] (growth inhibition) was found to be 7.29 nM. Also, in experiment [2], the “MKN45 Cell Prolif. 120 hr (Ymin-Obs)” value was determined as 8.76.
As for `O=C1CCC(N2Cc3cc(O[C@H]4CCN(Cc5ccc6ncc(N7CCOCC7)cc6c5)C4)ccc3C2=O)C(=O)N1` (stereo partly drawn) [3-(5-{[(3S)-1-{[3-(morpholin-4-yl)quinolin-6-yl]methyl}pyrrolidin-3-yl]oxy}-1-oxo-2,3-dihydro-1H-isoindol-2-yl)piperidine-2,6-dione], in experiment [1] (setting [3]), the “293T-LentiX WEE1-ePL Degradation 4 hr (Ymin)” value is reported as 27. The DC50 in experiment [1] was 3.19 nM. Further, the concentration for a half-maximal effect (EC50) in experiment [2] (growth inhibition) was found to be 2.96 nM. Besides, the “MKN45 Cell Prolif. 120 hr (Ymin-Obs)” value in experiment [2] is given as 7.83.
As for `COC[C@@H]1CN(Cc2ccc3nc(C4CCN(C(C)=O)CC4)ncc3c2)C[C@H]1Oc1ccc2c(c1)CN([C@H]1CCC(=O)NC1=O)C2=O` [(3S)-3-(5-{[(3S,4S)-1-{[2-(1-acetylpiperidin-4-yl)quinazolin-6-yl]methyl}-4-(methoxymethyl)pyrrolidin-3-yl]oxy}-1-oxo-2,3-dihydro-1H-isoindol-2-yl)piperidine-2,6-dione], in experiment [1] (setting [4]), the “293T-LentiX WEE1-ePL Degradation 4 hr (Ymin)” value was determined as 26.93. The DC50 in experiment [1] was 11.9 nM. In addition, in experiment [2], the EC50 was determined as 3.54 nM and the “MKN45 Cell Prolif. 120 hr (Ymin-Obs)” value turned out to be 9.28.
`O=C1CCC(N2Cc3ccc(O[C@H]4CCN(Cc5cnc6ccccc6c5)C4)cc3C2=O)C(=O)N1` (stereo partly drawn) [3-(1-oxo-6-{[(3S)-1-[(quinolin-3-yl)methyl]pyrrolidin-3-yl]oxy}-2,3-dihydro-1H-isoindol-2-yl)piperidine-2,6-dione]: the “293T-LentiX WEE1-ePL Degradation 4 hr (Ymin)” value in experiment [1] (setting [3]) came to 27.98. Also, in experiment [1], the DC50 was 8.74 nM. In addition, in experiment [2] (growth inhibition), the EC50 was 42.4 nM. Moreover, the “MKN45 Cell Prolif. 120 hr (Ymin-Obs)” value in experiment [2] is given as 12.43.
On the same counts, the results for `O=C1CCC(N2Cc3cc(O[C@H]4CCN(Cc5cc(-c6ccccc6)ccn5)C4)ccc3C2=O)C(=O)N1` (stereo partly drawn) [3-(1-oxo-5-{[(3S)-1-[(4-phenylpyridin-2-yl)methyl]pyrrolidin-3-yl]oxy}-2,3-dihydro-1H-isoindol-2-yl)piperidine-2,6-dione] are 34.5, 5.3 nM, 16.7 nM and 8.59.
For `O=C1CCC(N2Cc3cc(O[C@H]4CCN(Cc5ccc6nc(N7CCC(O)CC7)ccc6c5)C4)ccc3C2=O)C(=O)N1` (stereo partly drawn) [3-(5-{[(3S)-1-{[2-(4-hydroxypiperidin-1-yl)quinolin-6-yl]methyl}pyrrolidin-3-yl]oxy}-1-oxo-2,3-dihydro-1H-isoindol-2-yl)piperidine-2,6-dione] the same measures were 34.5, 2.86 nM, 6.59 nM and 9.69.
Regarding `Cc1ccc2cc(CN3C[C@H](C)[C@H](Oc4ccc5c(c4)CN(C4CCC(=O)NC4=O)C5=O)C3)ccc2n1` (stereo partly drawn) [3-(5-{[(3S,4S)-4-methyl-1-[(2-methylquinolin-6-yl)methyl]pyrrolidin-3-yl]oxy}-1-oxo-2,3-dihydro-1H-isoindol-2-yl)piperidine-2,6-dione], in experiment [1] (setting [3]), the “293T-LentiX WEE1-ePL Degradation 4 hr (Ymin)” value stood at 88.5. Further, the EC50 in experiment [2] (growth inhibition) is more than 10000 nM. For the same molecule, the “MKN45 Cell Prolif. 120 hr (Ymin-Obs)” value in experiment [2] was found to be 85.96.
For the molecule `O=C1CCC(N2Cc3cc(O[C@H]4CCN(Cc5ccc6nc(N7CCCC7=O)ccc6c5)C4)ccc3C2=O)C(=O)N1` (stereo partly drawn) [3-(1-oxo-5-{[(3S)-1-{[2-(2-oxopyrrolidin-1-yl)quinolin-6-yl]methyl}pyrrolidin-3-yl]oxy}-2,3-dihydro-1H-isoindol-2-yl)piperidine-2,6-dione], the “293T-LentiX WEE1-ePL Degradation 4 hr (Ymin)” value in experiment [1] (setting [3]) is 31. For the same molecule, the DC50 in experiment [1] worked out at 1.83 nM. Further, the EC50 in experiment [2] (growth inhibition) worked out at 7.19 nM. The “MKN45 Cell Prolif. 120 hr (Ymin-Obs)” value in experiment [2] is 10.36.
On to `CC1(C)CN(c2ccc3cc(CN4CC[C@H](Oc5ccc6c(c5)CN(C5CCC(=O)NC5=O)C6=O)C4)ccc3n2)CCO1` (stereo partly drawn) [3-(5-{[(3S)-1-{[2-(2,2-dimethylmorpholin-4-yl)quinolin-6-yl]methyl}pyrrolidin-3-yl]oxy}-1-oxo-2,3-dihydro-1H-isoindol-2-yl)piperidine-2,6-dione], for which, in experiment [1] (setting [3]), the “293T-LentiX WEE1-ePL Degradation 4 hr (Ymin)” value was 32. Further, in experiment [1], the DC50 was 2.41 nM. The EC50 in experiment [2] (growth inhibition) worked out at 2.61 nM. In addition, the “MKN45 Cell Prolif. 120 hr (Ymin-Obs)” value in experiment [2] is 10.48.
With `CC1(C)C[C@H](c2ccc3cc(CN4CC[C@H](Oc5ccc6c(c5)CN([C@H]5CCC(=O)NC5=O)C6=O)C4)ccc3n2)CCO1` [(3S)-3-(5-{[(3S)-1-({2-[(4R)-2,2-dimethyloxan-4-yl]quinolin-6-yl}methyl)pyrrolidin-3-yl]oxy}-1-oxo-2,3-dihydro-1H-isoindol-2-yl)piperidine-2,6-dione], in experiment [1] (setting [4]), the “293T-LentiX WEE1-ePL Degradation 4 hr (Ymin)” value stood at 26.67. The DC50 in experiment [1] amounted to 1.85 nM. Also, in experiment [2], the EC50 came out at 1.83 nM and the “MKN45 Cell Prolif. 120 hr (Ymin-Obs)” value is on record as 11.19.
Consider `O=C1CCC(N2Cc3cc(O[C@H]4CCN(Cc5ccc6nc(N7CCC78CCOCC8)ccc6c5)C4)ccc3C2=O)C(=O)N1` (stereo partly drawn) [3-(5-{[(3S)-1-[(2-{7-oxa-1-azaspiro[3.5]nonan-1-yl}quinolin-6-yl)methyl]pyrrolidin-3-yl]oxy}-1-oxo-2,3-dihydro-1H-isoindol-2-yl)piperidine-2,6-dione], for which, in experiment [1] (setting [3]), the “293T-LentiX WEE1-ePL Degradation 4 hr (Ymin)” value was 33. For the same molecule, in experiment [1], the DC50 was determined as 6.05 nM. The EC50 in experiment [2] (growth inhibition) came out at 3.7 nM. Further, the “MKN45 Cell Prolif. 120 hr (Ymin-Obs)” value in experiment [2] is given as 7.36.
In the case of `O=C1CCC(N2Cc3cc(O[C@H]4CCN(Cc5ccc6ccncc6c5)C4)ccc3C2=O)C(=O)N1` (stereo partly drawn) [3-(5-{[(3S)-1-[(isoquinolin-7-yl)methyl]pyrrolidin-3-yl]oxy}-1-oxo-2,3-dihydro-1H-isoindol-2-yl)piperidine-2,6-dione], the “293T-LentiX WEE1-ePL Degradation 4 hr (Ymin)” value in experiment [1] (setting [3]) is recorded as 46. For the same molecule, in experiment [1], the DC50 stood at 21 nM. In addition, the EC50 in experiment [2] (growth inhibition) was 290 nM. Further, in experiment [2], the “MKN45 Cell Prolif. 120 hr (Ymin-Obs)” value amounted to 54.45.
For `O=C1CC[C@H](N2Cc3cc(O[C@H]4CCN(Cc5ccc6nc(N7CCOCC7)ncc6c5Cl)C4)ccc3C2=O)C(=O)N1` [(3S)-3-(5-{[(3S)-1-{[5-chloro-2-(morpholin-4-yl)quinazolin-6-yl]methyl}pyrrolidin-3-yl]oxy}-1-oxo-2,3-dihydro-1H-isoindol-2-yl)piperidine-2,6-dione], the “293T-LentiX WEE1-ePL Degradation 4 hr (Ymin)” value in experiment [1] (setting [4]) is reported as 28.46. The DC50 in experiment [1] is 3.58 nM. In experiment [2], the EC50 is 18.3 nM and the “MKN45 Cell Prolif. 120 hr (Ymin-Obs)” value was determined as 17.49.
Regarding `O=C1CCC(N2Cc3cc(O[C@H]4CCN(Cc5cc6c(F)cccc6cn5)C4)ccc3C2=O)C(=O)N1` (stereo partly drawn) [3-(5-{[(3S)-1-[(5-fluoroisoquinolin-3-yl)methyl]pyrrolidin-3-yl]oxy}-1-oxo-2,3-dihydro-1H-isoindol-2-yl)piperidine-2,6-dione], the “293T-LentiX WEE1-ePL Degradation 4 hr (Ymin)” value in experiment [1] (setting [3]) amounted to 43.45. In addition, the DC50 in experiment [1] worked out at 13.3 nM. For the same molecule, the EC50 in experiment [2] (growth inhibition) was 185 nM. Further, the “MKN45 Cell Prolif. 120 hr (Ymin-Obs)” value in experiment [2] stood at 53.33.
